Measurements reported in ChEMBL document CHEMBL5226375, “Synthesis and Comprehensive in Vivo Activity Profiling of Olean-12-en-28-ol, 3β-Pentacosanoate in Experimental Autoimmune Encephalomyelitis: A Natural Remyelinating and Anti-Inflammatory Agent” (J Nat Prod, 2023).
Blank lines part the entries; values can stand above or below the molecule they belong to. Active and inactive are the calls of the source. The rule behind the calls is not given here.

Legend:
Mus musculus [1] = assay: Anti-inflammatory activity against MOG35-55-induced experimental autoimmune encephalomyelitis C57BL/6 mouse model assessed as fold change in TNF-alpha gene expression in brain at 300 mg/kg/day, ig for 14 days starting from 12th day of immunization by RT-qPCR analysis relative to control; assay type: functional; conditions: time 14 day
Mus musculus [2] = assay: Anti-inflammatory activity against MOG35-55-induced experimental autoimmune encephalomyelitis C57BL/6 mouse model assessed as upregulation of PLP protein expression in brain at 300 to 600 mg/kg/day, ig for 14 days starting from 12th day of immunization by western blot analysis relative to control; assay type: functional; conditions: dose 300-600 mg/kg/day, time 14 day
Mus musculus [3] = assay: Anti-inflammatory activity against MOG35-55-induced experimental autoimmune encephalomyelitis C57BL/6 mouse model assessed as fold change in H2EB1 (HLA-DRB1) gene expression in brain at 600 mg/kg/day, ig for 14 days starting from 12th day of immunization by RT-qPCR analysis relative to control; assay type: functional; conditions: time 14 day
Mus musculus [4] = assay: Anti-inflammatory activity against MOG35-55-induced experimental autoimmune encephalomyelitis C57BL/6 mouse model assessed as fold change in PLP gene expression in brain at 600 mg/kg/day, ig for 14 days starting from 12th day of immunization by RT-qPCR analysis relative to control; assay type: functional; conditions: time 14 day
Mus musculus [5] = assay: Anti-inflammatory activity against MOG35-55-induced experimental autoimmune encephalomyelitis C57BL/6 mouse model assessed as reduction in serum chemokines level by measuring reduction in CCL5 level at 600 mg/kg/day, ig for 14 days starting from 12th day of immunization by ELISA; assay type: functional, organism-based; conditions: time 14.0 day
Mus musculus [6] = assay: Anti-inflammatory activity against MOG35-55-induced experimental autoimmune encephalomyelitis C57BL/6 mouse model assessed as fold change in PLP gene expression in brain at 300 mg/kg/day, ig for 14 days starting from 12th day of immunization by RT-qPCR analysis relative to control; assay type: functional; conditions: time 14 day
Mus musculus [7] = assay: Anti-inflammatory activity against MOG35-55-induced experimental autoimmune encephalomyelitis C57BL/6 mouse model assessed as reduction in serum chemokines level by measuring reduction in IL-3 level at 600 mg/kg/day, ig for 14 days starting from 12th day of immunization by ELISA; assay type: functional, organism-based; conditions: time 14.0 day
Mus musculus [8] = assay: Anti-inflammatory activity against MOG35-55-induced experimental autoimmune encephalomyelitis C57BL/6 mouse model assessed as fold change in MMP9 gene expression in brain at 600 mg/kg/day, ig for 14 days starting from 12th day of immunization by RT-qPCR analysis relative to control; assay type: functional; conditions: time 14 day
Mus musculus [9] = assay: Anti-inflammatory activity against MOG35-55-induced experimental autoimmune encephalomyelitis C57BL/6 mouse model assessed as methylation of CpG sites of IL10RA gene promoter in brain at 600 mg/kg, ig for 14 days starting from 12th day of immunization by PCR analysis (reference value: 34.9 +/-4%); assay type: functional; conditions: time 14 day
[10] = Stability of the compound in THF/phosphate buffer at pH 6.5 incubated for 2 hrs under stirring conditions by 1H-NMR analysis; assay type: physicochemical; conditions: pH 6.5, 2 h
Mus musculus [11] = assay: Anti-inflammatory activity against MOG35-55-induced experimental autoimmune encephalomyelitis C57BL/6 mouse model assessed as fold change in MBP gene expression in brain at 600 mg/kg/day, ig for 14 days starting from 12th day of immunization by RT-qPCR analysis relative to control; assay type: functional; conditions: time 14 day
Mus musculus [12] = assay: Anti-inflammatory activity against MOG35-55-induced experimental autoimmune encephalomyelitis C57BL/6 mouse model assessed as increase in serum IL-4 level at 600 mg/kg/day, ig for 14 days starting from 12th day of immunization by ELISA; assay type: functional, organism-based; conditions: time 14.0 day
Mus musculus [13] = assay: Anti-inflammatory activity against MOG35-55-induced experimental autoimmune encephalomyelitis C57BL/6 mouse model assessed as methylation of CpG sites of IL18 gene promoter in brain at […], ig for 14 days starting from 12th day of immunization by PCR analysis (reference value: 29.2 +/-8%); assay type: functional; conditions: time 14 day
Mus musculus [14] = assay: Anti-inflammatory activity against MOG35-55-induced experimental autoimmune encephalomyelitis C57BL/6 mouse model assessed as fold change in TNF-alpha gene expression in brain at 0.15 mg/kg/day, ig for 14 days starting from 12th day of immunization by RT-qPCR analysis relative to control; assay type: functional; conditions: time 14 day
Mus musculus [15] = assay: Anti-inflammatory activity against MOG35-55-induced experimental autoimmune encephalomyelitis C57BL/6 mouse model assessed as fold change in PLP gene expression in brain at 0.3 mg/kg/day, ig for 14 days starting from 12th day of immunization by RT-qPCR analysis relative to control; assay type: functional; conditions: time 14 day
Mus musculus [16] = assay: Anti-inflammatory activity against MOG35-55-induced experimental autoimmune encephalomyelitis C57BL/6 mouse model assessed as reduction in serum Th1 cytokine level by measuring reduction in IFNG level at 0.3 mg/kg/day, ig for 14 days starting from 12th day of immunization by ELISA; assay type: functional, organism-based; conditions: time 14.0 day
Mus musculus [17] = assay: Anti-inflammatory activity against MOG35-55-induced experimental autoimmune encephalomyelitis C57BL/6 mouse model assessed as proportion of brain infiltrating cells expressing CD45+/CD11b/c high surface markers at […]/day, ig for 14 days starting from 12th day of immunization by flow cytometry (reference value: 87.7%); assay type: functional; conditions: time 14 day
Mus musculus [18] = assay: Anti-inflammatory activity against MOG35-55-induced experimental autoimmune encephalomyelitis C57BL/6 mouse model assessed as methylation of CpG sites of CXCL14 gene promoter in brain at […], ig for 14 days starting from 12th day of immunization by PCR analysis (reference value: 46.5 +/-6%); assay type: functional; conditions: time 14 day
Mus musculus [19] = assay: Anti-inflammatory activity against MOG35-55-induced experimental autoimmune encephalomyelitis C57BL/6 mouse model assessed as fold change in CCL5 gene expression in brain at 0.3 mg/kg/day, ig for 14 days starting from 12th day of immunization by RT-qPCR analysis relative to control; assay type: functional; conditions: time 14 day
Mus musculus [20] = assay: Anti-inflammatory activity against MOG35-55-induced experimental autoimmune encephalomyelitis C57BL/6 mouse model assessed as fold change in APP gene expression in brain at 0.15 mg/kg/day, ig for 14 days starting from 12th day of immunization by RT-qPCR analysis relative to control; assay type: functional; conditions: time 14 day
Mus musculus [21] = assay: Anti-inflammatory activity against MOG35-55-induced experimental autoimmune encephalomyelitis C57BL/6 mouse model assessed as fold change in CXCL10 gene expression in brain at 0.3 mg/kg/day, ig for 14 days starting from 12th day of immunization by RT-qPCR analysis relative to control; assay type: functional; conditions: time 14 day
Mus musculus [22] = assay: Anti-inflammatory activity against MOG35-55-induced experimental autoimmune encephalomyelitis C57BL/6 mouse model assessed as fold change in STAT3 gene expression in brain at 0.15 mg/kg/day, ig for 14 days starting from 12th day of immunization by RT-qPCR analysis relative to control; assay type: functional; conditions: time 14 day
Mus musculus [23] = assay: Anti-inflammatory activity against MOG35-55-induced experimental autoimmune encephalomyelitis C57BL/6 mouse model assessed as reduction in EAE symptoms by measuring reduction in clinical score at 0.15 to 0.3 mg/kg/day, ig starting from 12th day of immunization and measured on day 14 post-immunization; assay type: functional, organism-based; conditions: dose 0.15-0.3 mg/kg/day, time 2.0 day
Mus musculus [24] = assay: Anti-inflammatory activity against MOG35-55-induced experimental autoimmune encephalomyelitis C57BL/6 mouse model assessed as fold change in MMP9 gene expression in brain at 0.3 mg/kg/day, ig for 14 days starting from 12th day of immunization by RT-qPCR analysis relative to control; assay type: functional; conditions: time 14 day

Stability [10]: Stable
Structure (SMILES): CCCCCCCCCCCCCCCCCCCCCCCCC(=O)O[C@H]1CC[C@]2(C)[C@H]3CC=C4[C@@H]5CC(C)(C)CC[C@]5(CO)CC[C@@]4(C)[C@]3(C)CC[C@H]2C1(C)C
fold change (FC) (Mus musculus [1]): 1.76 | fold change (FC) (Mus musculus [2]): 2 | fold change (FC) (Mus musculus [3]): 11.4 | fold change (FC) (Mus musculus [4]): 1.14 | Activity (Mus musculus [5]): Active | fold change (FC) (Mus musculus [6]): 1.9 | Activity (Mus musculus [7]): Active | fold change (FC) (Mus musculus [8]): 2.8 | Activity (Mus musculus [9]): 32% | fold change (FC) (Mus musculus [11]): 3.8 | Activity (Mus musculus [12]): Active

Structure (SMILES): CCCCCCCCc1ccc(CCC(N)(CO)CO)cc1 [FINGOLIMOD]
Activity (Mus musculus [13]): 29.5% | fold change (FC) (Mus musculus [14]): 2.21 | fold change (FC) (Mus musculus [15]): -2.32 | Activity (Mus musculus [16]): Active | Activity (Mus musculus [17]): 46.6% | Activity (Mus musculus [18]): 73.6% | fold change (FC) (Mus musculus [19]): -1.06 | fold change (FC) (Mus musculus [20]): 1.77 | fold change (FC) (Mus musculus [21]): 2.17 | fold change (FC) (Mus musculus [22]): 1.96 | Activity (Mus musculus [23]): Active | fold change (FC) (Mus musculus [24]): 4.44
